This passage reports IC50 results from patent US9663508B2, “Biaryl acyl-sulfonamide compounds as sodium channel inhibitors” (AMGEN INC., priority 2013, dated 2017).

The structures appear in SMILES notation. Read-outs that look alike come from different tables or passages of the source.

This test has as its target human Nav1.7 (Homo sapiens (Human), UniProt Q15858). The experiment in a line: Nav 1.7 in vitro PatchXpress (PX) assay. The format is cell-based.

Usually IC50 stands for the point on the concentration scale where inhibition reaches its midpoint.

human Nav1.7, sequence (Q15858 whole entry): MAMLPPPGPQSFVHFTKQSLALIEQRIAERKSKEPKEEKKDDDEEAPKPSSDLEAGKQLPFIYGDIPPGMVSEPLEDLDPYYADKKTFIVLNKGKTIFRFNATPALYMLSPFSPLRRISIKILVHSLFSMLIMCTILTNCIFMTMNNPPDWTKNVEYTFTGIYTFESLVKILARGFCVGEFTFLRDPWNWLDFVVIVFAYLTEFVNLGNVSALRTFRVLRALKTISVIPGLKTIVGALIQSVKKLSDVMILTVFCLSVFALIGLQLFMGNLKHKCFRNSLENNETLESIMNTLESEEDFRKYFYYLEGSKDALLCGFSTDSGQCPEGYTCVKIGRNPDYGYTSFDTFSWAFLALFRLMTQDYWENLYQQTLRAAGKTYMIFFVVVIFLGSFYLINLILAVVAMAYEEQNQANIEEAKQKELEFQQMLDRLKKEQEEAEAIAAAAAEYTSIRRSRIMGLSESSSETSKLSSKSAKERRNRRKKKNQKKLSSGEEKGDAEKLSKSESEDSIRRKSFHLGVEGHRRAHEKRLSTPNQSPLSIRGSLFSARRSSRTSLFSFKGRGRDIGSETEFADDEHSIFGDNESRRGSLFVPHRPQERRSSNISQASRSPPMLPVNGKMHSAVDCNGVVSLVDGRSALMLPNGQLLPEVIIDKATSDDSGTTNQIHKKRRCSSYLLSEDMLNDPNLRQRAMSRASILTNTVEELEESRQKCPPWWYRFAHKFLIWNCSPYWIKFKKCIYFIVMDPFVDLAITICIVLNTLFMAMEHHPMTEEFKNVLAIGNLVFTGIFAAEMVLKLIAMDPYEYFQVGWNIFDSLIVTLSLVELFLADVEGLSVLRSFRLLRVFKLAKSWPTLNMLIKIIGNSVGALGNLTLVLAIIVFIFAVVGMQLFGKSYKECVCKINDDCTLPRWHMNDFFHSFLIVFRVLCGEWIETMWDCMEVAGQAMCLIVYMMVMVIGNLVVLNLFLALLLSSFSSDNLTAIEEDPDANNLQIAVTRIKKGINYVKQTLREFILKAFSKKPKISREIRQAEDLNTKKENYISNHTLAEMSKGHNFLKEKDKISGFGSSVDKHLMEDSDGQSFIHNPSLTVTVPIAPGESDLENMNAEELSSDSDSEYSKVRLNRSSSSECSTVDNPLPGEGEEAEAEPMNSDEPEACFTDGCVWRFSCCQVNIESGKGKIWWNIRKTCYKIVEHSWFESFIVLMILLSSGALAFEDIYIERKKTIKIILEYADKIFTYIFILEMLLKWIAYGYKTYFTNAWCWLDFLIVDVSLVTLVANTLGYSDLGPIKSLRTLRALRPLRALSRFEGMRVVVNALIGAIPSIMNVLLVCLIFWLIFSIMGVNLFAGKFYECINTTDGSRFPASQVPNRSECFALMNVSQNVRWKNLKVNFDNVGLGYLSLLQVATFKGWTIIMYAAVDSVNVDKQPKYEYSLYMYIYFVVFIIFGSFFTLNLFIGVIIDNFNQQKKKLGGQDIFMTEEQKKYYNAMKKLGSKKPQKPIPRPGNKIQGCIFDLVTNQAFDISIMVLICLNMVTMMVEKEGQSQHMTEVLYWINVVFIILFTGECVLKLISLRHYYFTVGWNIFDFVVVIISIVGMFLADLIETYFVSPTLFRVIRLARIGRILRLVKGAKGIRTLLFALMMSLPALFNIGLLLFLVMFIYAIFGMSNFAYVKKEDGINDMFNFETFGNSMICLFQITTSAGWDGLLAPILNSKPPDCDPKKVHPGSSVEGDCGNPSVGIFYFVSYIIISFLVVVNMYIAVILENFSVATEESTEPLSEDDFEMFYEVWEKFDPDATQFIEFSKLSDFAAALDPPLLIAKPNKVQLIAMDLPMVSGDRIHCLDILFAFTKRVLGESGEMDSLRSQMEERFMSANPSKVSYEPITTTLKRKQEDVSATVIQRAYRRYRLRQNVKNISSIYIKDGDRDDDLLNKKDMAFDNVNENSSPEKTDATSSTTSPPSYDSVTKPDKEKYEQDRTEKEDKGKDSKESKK

`COc1cc(C(=O)NS(C)(=O)=O)ccc1-c1cnc(Oc2cccc(Cl)c2C)c(C#N)c1` [Example 690, 4-(6-(3-chloro-2-methylphenoxy)-5-cyano-3-pyridinyl)-3-methoxy-N-(methylsulfonyl)benzamide] registered an IC50 of 46.9 nM.

As for `COc1cc(C(=O)NS(C)(=O)=O)c(F)cc1-c1cnc(NCC2CC(C)(C)C2)c(Cl)c1` [Example 723, 4-(5-chloro-6-(((3,3-dimethylcyclobutyl)methyl)amino)-3-pyridinyl)-2-fluoro-5-methoxy-N-(methylsulfonyl)benzamide], it took 74.8 nM to reach half-maximal inhibition (in-vitro Nav 1.7 PX data) (IC50).

Compound `COc1cc(C(=O)NS(C)(=O)=O)ccc1-c1cnc(Oc2cc(Cl)cc(C(F)(F)F)c2)c(Cl)c1` [Example 374, 4-(5-chloro-6-(3-chloro-5-(trifluoromethyl)phenoxy)-3-pyridinyl)-3-methoxy-N-(methylsulfonyl)benzamide] showed an IC50 of 58.4 nM.

Consider `COc1cc(C(=O)NS(C)(=O)=O)c(F)cc1-c1cnc(O[C@H](C)C2CCC2)c(Cl)c1` (single isomer, unassigned) [Example 769], for which the IC50 (in-vitro Nav 1.7 PX data) was determined as 50 nM.

Regarding `COc1cc(C(=O)NS(C)(=O)=O)c(F)cc1-c1cnc(NCC2CCC(C)(C)CC2)c(Cl)c1` [Example 721, 4-(5-chloro-6-(((4,4-dimethylcyclohexyl)methyl)amino)-3-pyridinyl)-2-fluoro-5-methoxy-N-(methylsulfonyl)benzamide], inhibition (in-vitro Nav 1.7 PX data) was half-maximal at 87.2 nM (IC50).

Take `COc1cc(C(=O)NS(C)(=O)=O)c(F)cc1-c1cnc(Oc2cc(Cl)ccc2F)c(Cl)c1` [Example 747, 4-(5-chloro-6-(5-chloro-2-fluorophenoxy)-3-pyridinyl)-2-fluoro-5-methoxy-N-(methylsulfonyl)benzamide]: the IC50 (in-vitro Nav 1.7 PX data) is 83.6 nM.

For `COc1cc(C(=O)NS(C)(=O)=O)ccc1-c1cnc(Oc2cc(Cl)cc(OC(F)(F)F)c2)c(Cl)c1` [Example 372, 4-(5-chloro-6-(3-chloro-5-(trifluoromethoxy)phenoxy)-3-pyridinyl)-3-methoxy-N-(methylsulfonyl)benzamide], inhibition was half-maximal at 50.4 nM (IC50). This counts as double-digit nanomolar.

Compound `COc1cc(C(=O)NS(C)(=O)=O)c(F)cc1-c1cnc(OC2CCC2)c(Cl)c1` [Example 702, 4-(5-chloro-6-(cyclobutyloxy)-3-pyridinyl)-2-fluoro-5-methoxy-N-(methylsulfonyl)benzamide] displayed an IC50 of 68.4 nM.

With `COc1ncc(Oc2ncc(-c3ccc(C(=O)NS(C)(=O)=O)cc3OC3COC3)cc2Cl)cc1Cl` [Example 412, 4-(5-chloro-6-((5-chloro-6-methoxy-3-pyridinyl)oxy)-3-pyridinyl)-N-(methylsulfonyl)-3-(3-oxetanyloxy)benzamide], the IC50 was found to be 98.9 nM.

`Cc1cc(Cl)cc(Cl)c1Oc1ncc(-c2ccc(C(=O)NS(C)(=O)=O)cc2OC2COC2)cc1Cl` [Example 584, 4-(5-chloro-6-(2,4-dichloro-6-methylphenoxy)-3-pyridinyl)-N-(methylsulfonyl)-3-(3-oxetanyloxy)benzamide] displayed an IC50 of 59 nM. This IC50 is about 1.7-fold lower than that of the compound before.

Turning to `CS(=O)(=O)NC(=O)c1ccc(-c2cnc(Oc3cc(Cl)cc(Cl)c3)c(Cl)c2)c(OC2COC2)c1` [Example 422, 4-(5-chloro-6-(3,5-dichlorophenoxy)-3-pyridinyl)-N-(methylsulfonyl)-3-(3-oxetanyloxy)benzamide], the IC50 is 31.3 nM.

The compound `CCc1ccc(-c2cc(F)c(C(=O)NS(C)(=O)=O)cc2C)cc1Cl` [Example 814, 3′-chloro-4′-ethyl-5-fluoro-2-methyl-N-(methylsulfonyl)-4-biphenylcarboxamide] came in with an IC50 (in-vitro Nav 1.7 PX data) of 381 nM.

The compound `COc1cc(C(=O)NS(C)(=O)=O)c(F)cc1-c1cnc(O[C@@H](C)Cc2ccccc2)c(Cl)c1` [Example 758, 4-(5-chloro-6-((1S)-1-methyl-2-phenylethoxy)-3-pyridinyl)-2-fluoro-5-methoxy-N-(methylsulfonyl)benzamide] registered an IC50 (in-vitro Nav 1.7 PX data) of 83.8 nM. This IC50 lies about 4.5-fold lower than the previous one.

For `COc1cc(C(=O)NS(C)(=O)=O)ccc1-c1cnc(Oc2ccc(C)cc2Cl)c(Cl)c1` [Example 344, 4-(5-chloro-6-(2-chloro-4-methylphenoxy)-3-pyridinyl)-3-methoxy-N-(methylsulfonyl)benzamide], inhibition was half-maximal at 91.5 nM (IC50).
